Data as given in patent publication US5328902A, “7-(substituted)-9-[(substituted glycyl)amido]-6-demethyl-6-deoxytetracyclines” (American Cyanamid Co., priority 1992, dated 1994).

Key:
Assay type in all cases: cell-based
S. aureus ATCC 29213 = assay: MIC, agar dilution; details: S. aureus ATCC 29213
[1] = test system: Ps. acruginosa ATCC 27853; assay: MIC, agar dilution; details: Ps. acruginosa ATCC 27853
E. coli BAJ9003 IMP MUT = assay: microbe, parasite or virus in culture; details: E. coli BAJ9003 IMP MUT
[2] = test system: S. aureus UBMS 88-7 Tet K; assay: microbe, parasite or virus in culture; details: S. aureus UBMS 88-7 Tet K
S. aureus IVES 1 983 = assay: MIC, agar dilution; details: S. aureus IVES 1 983
[3] = test system: S. aureus UBMS 90-2 Tet M; assay: microbe, parasite or virus in culture; details: S. aureus UBMS 90-2 Tet M
E. coli #311 (MP) = assay: MIC, agar dilution; details: E. coli #311 (MP)
E. coli J3272 Tet sens. = assay: MIC, agar dilution
E. coli PRP1 Tet A = assay: microbe, parasite or virus in culture; details: E. coli PRP1 Tet A
S. aureus UBMS 88-4 = assay: MIC, agar dilution; details: S. aureus UBMS 88-4
[4] = test system: S. aureus UBMS 90-1 Tet M; assay: microbe, parasite or virus in culture; details: S. aureus UBMS 90-1 Tet M
E. coli UBMS 88-1 Tet B = assay: microbe, parasite or virus in culture; details: E. coli UBMS 88-1 Tet B; 18 hours at 35° C.
E. coli J3272 Tet C = assay: microbe, parasite or virus in culture; details: E. coli J3272 Tet C
S. aureus IVES 2943 = assay: MIC, agar dilution; details: S. aureus IVES 2943
[5] = test system: E. coli MC 4100 TNIOC Tet B; assay: microbe, parasite or virus in culture; details: E. coli MC 4100 TNIOC Tet B
E. faecalis ATCC 29212 = assay: MIC, agar dilution; details: E. faecalis ATCC 29212
S. aureus UBMS 90-3 = assay: MIC, agar dilution; details: S. aureus UBMS 90-3
E. coli UBMS 90-5 = assay: MIC, agar dilution
S. mariescens FPOR 8733 = assay: MIC, agar dilution
S. aureus ROSE (MP) = assay: MIC, agar dilution; details: S. aureus ROSE (MP)
[6] = test system: S. aureus UBMS 88-5 Tet M; assay: microbe, parasite or virus in culture; details: S. aureus UBMS 88-5 Tet M
S. aureus NEMC 8769 = assay: MIC, agar dilution; details: S. aureus NEMC 8769
S. aureus SMITH (MP) = assay: MIC, agar dilution; details: S. aureus SMITH (MP)
E. coli ATCC 25922 = assay: MIC, agar dilution; details: E. coli ATCC 25922
E. coli J3272 Tet D = assay: microbe, parasite or virus in culture; details: E. coli J3272 Tet D
E. coli UBMS 89-1 Tet M = assay: microbe, parasite or virus in culture; details: E. coli UBMS 89-1 Tet M
[7] = test system: S. hemolyticus AVHAH 88-3; assay: MIC, agar dilution; details: S. hemolyticus AVHAH 88-3
[8] = test system: E. coli UBMS 89-2 Tet sens.; assay: MIC, agar dilution; details: E. coli UBMS 89-2 Tet sens.
E. coli J2175 = assay: MIC, agar dilution; details: E. coli J2175
Enterococcus 12201 = assay: MIC, agar dilution; details: Enterococcus 12201
E. coli UBMS 90-4 Tet M = assay: microbe, parasite or virus in culture; details: E. coli UBMS 90-4 Tet M

Row | Compound | MIC (S. aureus ATCC 29213) [µg/mL] | MIC [1] [µg/mL] | MIC [2] [µg/mL] | MIC (S. aureus IVES 1 983) [µg/mL] | MIC [3] [µg/mL] | MIC (E. coli #311 (MP)) [µg/mL] | MIC (E. coli J3272 Tet sens.) [µg/mL] | MIC (E. coli PRP1 Tet A) [µg/mL] | MIC [4] [µg/mL] | MIC (E. coli J3272 Tet C) [µg/mL] | MIC [5] [µg/mL] | MIC (E. faecalis ATCC 29212) [µg/mL] | MIC (S. aureus UBMS 90-3) [µg/mL] | MIC (E. coli UBMS 90-5) [µg/mL] | MIC (S. mariescens FPOR 8733) [µg/mL] | MIC (E. coli ATCC 25922) [µg/mL] | MIC (E. coli J3272 Tet D) [µg/mL] | MIC (E. coli UBMS 89-1 Tet M) [µg/mL] | MIC [8] [µg/mL] | MIC (E. coli J2175) [µg/mL] | other results
1 | CN(C)c1cc(NC(=O)C2CCCN2C(=O)C(F)(F)F)c(O)c2c1CC1CC3[C@H](N(C)C)C(O)=C(C(N)=O)C(=O)[C@@]3(O)C(O)=C1C2=O.Cl.Cl (stereo partly drawn) [A, [7S-(7alpha,10aalpha)]-N-[9-(Aminocarbonyl)4,7-bis(dimethylamino)-5,5a,6,6a,7,10,10a, 12-octahydro-l,8,10a,ll-tetrahydroxy-10,12-dioxo-2-naphthacenyl]-l-(trifluoroacetyl)-2-pyrrolidinecarboxamide dihydrochloride] | 4 | > 32 | 16 | 16 | 2 | 8 | 8 | > 32 | 8 | 8 | 8 | 2 | 1 | 4 | > 32 | 8 | 2 | 8 | 8 | 8 | MIC (E. coli BAJ9003 IMP MUT): 1 µg/mL; MIC (S. aureus UBMS 88-4): 4 µg/mL; MIC (E. coli UBMS 88-1 Tet B): 8 µg/mL; MIC (S. aureus IVES 2943): 16 µg/mL; MIC (S. aureus ROSE (MP)): 32 µg/mL; MIC [6]: 4 µg/mL; MIC (S. aureus NEMC 8769): 1 µg/mL; MIC (S. aureus SMITH (MP)): 2 µg/mL; MIC [7]: 8 µg/mL
2 | [4S-(4alpha,12aalpha)]-9-[(Bromoacetyl)amino]-4,7-bis(dimethylamino)-1,4,4a,5,5a,6, 11,12a-octahydro-3,10,12,12a-tetrahydroxy-1, 11-dioxo-2-naphthacenecarboxamide dihydrochloride | 0.5 | > 32 |  | 4 |  | 8 | 16 | > 32 | 1 | > 32 | > 32 | 0.5 | 0.5 | 16 | > 32 | 16 | 32 | 4 | 32 | 32 | MIC (Enterococcus 12201): 1 µg/mL; MIC [6]: 1 µg/mL; MIC (S. aureus NEMC 8769): 0.12 µg/mL
3 | [7S-(7alpha,10aalpha)]-N-[9-(Aminocarbonyl)-4,7-bis(dimethylamino)-5,5a,6,6a,7,10,10a,12-octahydro-1,8,10a,11-tetrahydroxy-10,12-dioxo-2-naphthacenyl]-4-thiomorpholineacetamide dihydrochloride [F] | 1 | > 32 | 4 | 4 | 1 | > 32 | > 32 | > 32 | 1 | > 32 | > 32 | 0.25 | 1 | > 32 | > 32 | 32 | 16 | > 32 | > 32 | > 32 | MIC (S. aureus UBMS 88-4): 1 µg/mL; MIC (E. coli UBMS 88-1 Tet B): > 32 µg/mL; MIC (Enterococcus 12201): 1 µg/mL; MIC (S. aureus IVES 2943): 4 µg/mL; MIC (S. aureus ROSE (MP)): 8 µg/mL; MIC (E. coli UBMS 90-4 Tet M): > 32 µg/mL; MIC [7]: 4 µg/mL
